Assay results from patent US9834535B2, “Sulfamate derivative compounds for use in treating or alleviating pain” (Bio-Pharm Solutions Co., Ltd., priority 2013, dated 2017).
Where two headings read alike, the source gives them in different places.

Tested on: CFA-induced pain model
Experiment: Antiallodynic activity on Complete Freund's Adjuvant (CFA)-induced inflammatory pain model (von Frey)
Assay type: in vivo, Sprague-Dawley rats
Conditions: rat, intraperitoneal; for response vs control in vivo at 18 mg/kg / response vs control in vivo at 60 mg/kg / response vs control in vivo at 40 mg/kg: Rattus norvegicus, read-out: CFA model: effect (%) at the concentration administered; for response vs control in vivo at 60 mg/kg / CFA model: effect (%) at the concentration administered: 60 mg/kg
Description: Male, Sprague-Dawley rats (200-220 g, Nara Bio, Korea) were habituated for 1 week before surgery and allowed free access to food and water throughout the experimentation. Room temperature and humidity were maintained at 24±2° C. and 50±10%, respectively.
CFA-induced inflammatory pain was induced by the procedure of Nagakura et al. (2003) and Gregory P. et al. (2010) with minor modifications. CFA (sigma, USA) was injected in the left plantar with a 100 ul volume under gaseous anesthesia with isoflurane a 4:4 flow ratio of NO2 Sham controls were injected with 100 ul of saline and vehicle controls were identical to CFA infusion model, except for administration of vehicles.
Tactile sensitivity (Mechanical allodynia) was evaluated using von Frey monofilaments before and after treatment, and animals were used withdrawal threshold value was less than 4 g. One week after surgery, CFA-infused animals (n=4˜6), sham-operated animals (n=12), and vehicle-operated animals (n=17) were tested for tactile sensitivity with von Frey monofilaments 3 trials in each animal. All Animals were placed in a stainless steel mashed chamber and habituated for 30 min in the test box. The tactile sensitivity for ipsilateral hind paw was measured using the up-and-down method (Dixon, 1980) with seven von Frey monofilaments (0.4, 1, 2, 4, 6, 8, and 15 g) to 3 trials. Tactile sensitivity test was followed by Dixon's method (Dixon, 1980). The 50% paw withdrawal threshold for each paw was calculated using the following formula: [Xth] log=[vFr] log+ky where [vFr] is the force of the last von Frey used, k=0.2249 which is the average interval (in log units) between the von Frey monofilaments, and y is a value that depends upon the pattern of withdrawal responses (Dixon, 1980).
[…] The test was performed peak time of efficacy (0.5 hr) after compound administration.
The relative values compared to the sham (% control) were calculated and shown in Table 4, which show an antiallodynic effect of the compound of Examples on CFA-induced pain model in rats.

NS(=O)(=O)OCC[C@@H]1OC2(CCCCC2)O[C@H]1c1ccccc1 [Example 136, 2-((2S,3S)-3-phenyl-1,4-dioxaspiro[4,5]decan-2-yl)ethyl sulfamate]
response vs control in vivo at 18 mg/kg (ip, 0.5 h, 0.5 h): 32.4%

Cc1ncsc1[C@H]1OC(C)(C)O[C@@H]1COS(N)(=O)=O [Example 167, ((4R,5S)-2,2-dimethyl-5-(4-methylthiazol-5-yl)-1,3-dioxolan-4-yl)methyl sulfamate]
response vs control in vivo at 60 mg/kg (ip, 0.5 h, 0.5 h): 38.6%

CCC1(CC)O[C@H](COS(N)(=O)=O)[C@@H](Cc2ccccc2)O1 [Example 124, ((4R,5R)-5-benzyl-2,2-diethyl-1,3-dioxolan-4-yl)methyl sulfamate]
response vs control in vivo at 40 mg/kg (ip, 0.5 h, 0.5 h): 34.2%

CCC1(CC)O[C@@H](CCOS(N)(=O)=O)[C@H](c2ccccc2Cl)O1 [Example 156, 2-((4S,5S)-5-(2-chlorophenyl)-2,2-diethyl-1,3-dioxolan-4-yl)ethyl sulfamate]
response vs control in vivo at 40 mg/kg (ip, 0.5 h, 0.5 h): 30.8%

NS(=O)(=O)OC[C@H]1OC2(CCCC2)O[C@@H]1Cc1ccccc1 [Example 126, ((2R,3R)-3-benzyl-1,4-dioxaspiro[4,4]nonan-2-yl)methyl sulfamate]
response vs control in vivo at 40 mg/kg (ip, 0.5 h, 0.5 h): 43.5%

NS(=O)(=O)OC[C@@H]1OC2(CCCCC2)O[C@H]1c1ccccc1Cl [Example 12, ((2S,3S)-3-(2-chlorophenyl)-1,4-dioxaspiro[4,5]decan-2-yl)methyl sulfamate]
response vs control in vivo at 18 mg/kg (ip, 0.5 h, 0.5 h): 48.8%

CC1(C)OC(COS(N)(=O)=O)C(c2cnccc2Cl)O1 (stereo not shown) [Example 174, (5-(4-chloropyridin-3-yl)-2,2-dimethyl-1,3-dioxolan-4-yl)methyl sulfamate]
response vs control in vivo at 60 mg/kg (ip, 0.5 h, 0.5 h): 24.7%

Cc1ncsc1[C@@H]1OC(C)(C)O[C@H]1COS(N)(=O)=O [Example 168, ((4S,5R)-2,2-dimethyl-5-(4-methylthiazol-5-yl)-1,3-dioxolan-4-yl)methyl sulfamate]
response vs control in vivo at 60 mg/kg (ip, 0.5 h, 0.5 h): 77.2%

NS(=O)(=O)OC[C@H]1OC2(CCCC2)O[C@@H]1Cc1ccccc1Cl [Example 150, ((2R,3R)-3-(2-chlorobenzyl)-1,4-dioxaspiro[4,4]nonan-2-yl)methyl sulfamate]
response vs control in vivo at 40 mg/kg (ip, 0.5 h, 0.5 h): 17.6%

NS(=O)(=O)OCC[C@H]1OC2(CCCCC2)O[C@@H]1Cc1ccccc1Cl [Example 144, 2-((2R,3R)-3-(2-chlorobenzyl)-1,4-dioxaspiro[4,5]decan-2-yl)ethyl sulfamate]
response vs control in vivo at 40 mg/kg (ip, 0.5 h, 0.5 h): 36.6%

CC1(C)O[C@@H](CCOS(N)(=O)=O)[C@H](c2ccccc2)O1 [Example 130, 2-((4S,5S)-5-phenyl-2,2-dimethyl-1,3-dioxolan-4-yl)ethyl sulfamate]
response vs control in vivo at 40 mg/kg (ip, 0.5 h, 0.5 h): 19.4%

CCC1(CC)O[C@@H](COS(N)(=O)=O)[C@H](c2ccccc2Cl)O1 [Example 8, ((4S,5S)-5-(2-chlorophenyl)-2,2-diethyl-1,3-dioxolan-4-yl)methyl sulfamate]
response vs control in vivo at 40 mg/kg (ip, 0.5 h, 0.5 h): 23.3%

CCC1(CC)O[C@H](CCOS(N)(=O)=O)[C@@H](Cc2ccccc2)O1 [Example 116, 2-((4R,5R)-5-benzyl-2,2-diethyl-1,3-dioxolan-4-yl)ethyl sulfamate]
response vs control in vivo at 40 mg/kg (ip, 0.5 h, 0.5 h): 14.5%

NS(=O)(=O)OC[C@@H]1OC2(CCCC2)O[C@H]1c1ccccc1 [Example 110, ((2S,3S)-3-phenyl-1,4-dioxaspiro[4,4]nonan-2-yl)methyl sulfamate]
response vs control in vivo at 40 mg/kg (ip, 0.5 h, 0.5 h): 42.7%

CC1(C)O[C@@H](CCOS(N)(=O)=O)[C@H](c2ccccc2Cl)O1 [Example 154, 2-((4S,5S)-5-(2-chlorophenyl)-2,2-dimethyl-1,3-dioxolan-4-yl)ethyl sulfamate]
response vs control in vivo at 40 mg/kg (ip, 0.5 h, 0.5 h): 32.1%

Nc1ccccc1[C@@H]1OC2(CCCCC2)O[C@H]1COS(N)(=O)=O [Example 74, ((2S,3S)-3-(2-aminophenyl)-1,4-dioxaspiro[4,5]decan-2-yl)methyl sulfamate]
response vs control in vivo at 60 mg/kg (ip, 0.5 h, 0.5 h): 37.1%

NS(=O)(=O)OC[C@H]1OC2(CCCCC2)O[C@@H]1Cc1ccccc1 [Example 128, ((2R,3R)-3-benzyl-1,4-dioxaspiro[4,5]decan-2-yl)methyl sulfamate]
response vs control in vivo at 18 mg/kg (ip, 0.5 h, 0.5 h): 24.5%

CC1(C)O[C@@H](COS(N)(=O)=O)[C@H](c2ccsc2)O1 [Example 171, ((4S,5S)-2,2-dimethyl-5-(thiophen-3-yl)-1,3-dioxolan-4-yl)methyl sulfamate]
response vs control in vivo at 60 mg/kg (ip, 0.5 h, 0.5 h): 29.8%

CC1(C)OC(COS(N)(=O)=O)C(c2cnc(Cl)nc2)O1 (stereo not shown) [Example 176, (2,2-dimethyl-5-(2-chloropyrimidin-5-yl)-1,3-dioxolan-4-yl)methyl sulfamate]
response vs control in vivo at 60 mg/kg (ip, 0.5 h, 0.5 h): 40%

CC1(C)OC(COS(N)(=O)=O)C(c2ccccc2Cl)O1 (mixture of isomers) [Example 3, (5-(2-chlorophenyl)-2,2-dimethyl-1,3-dioxolan-4-yl)methyl sulfamate(SS & RR mixture)]
CFA model: effect (%) at the concentration administered (0.5 h): ^#60 (24.0%, 0.5 h)

NS(=O)(=O)OC[C@@H]1OC(=O)O[C@H]1c1ccccc1[N+](=O)[O-] [Example 90, ((4S, 5S)-5-(2-nitrophenyl)-2-oxo-1,3-dioxolan-4-yl)methyl sulfamate]
response vs control in vivo at 60 mg/kg (ip, 0.5 h, 0.5 h): 15.6%

CCC1(CC)O[C@@H](CCOS(N)(=O)=O)[C@H](c2ccccc2)O1 [Example 132, 2-((4S,5S)-5-phenyl-2,2-diethyl-1,3-dioxolan-4-yl)ethyl sulfamate]
response vs control in vivo at 40 mg/kg (ip, 0.5 h, 0.5 h): 24.8%

CC1(C)OC(COS(N)(=O)=O)C(c2ccncc2Cl)O1 (stereo not shown) [Example 173, (5-(3-chloropyridin-4-yl)-2,2-dimethyl-1,3-dioxolan-4-yl)methyl sulfamate]
response vs control in vivo at 60 mg/kg (ip, 0.5 h, 0.5 h): 33.9%

CC1O[C@@H](COS(N)(=O)=O)[C@H](c2ccccc2Cl)O1 (stereo partly drawn) [Example 6, ((4S,5S)-5-(2-chlorophenyl)-2-methyl-1,3-dioxolan-4-yl)methyl sulfamate]
response vs control in vivo at 60 mg/kg (ip, 0.5 h, 0.5 h): 22.4%

CNc1ccccc1[C@@H]1OC(C)(C)O[C@H]1COS(=O)(=O)NC [Example 104, ((4S, 5S)-5-(2-methylaminophenyl)-2,2-dimethyl-1,3-dioxolan-4-yl)methyl methylsulfamate]
response vs control in vivo at 40 mg/kg (ip, 0.5 h, 0.5 h): 24.1%

CC1(C)O[C@@H](COS(N)(=O)=O)[C@H](c2ccccc2N)O1 [Example 66]
response vs control in vivo at 60 mg/kg (ip, 1 h, 1 h): 16.5%

CCC1(CC)O[C@H](CCOS(N)(=O)=O)[C@@H](Cc2ccccc2Cl)O1 [Example 140, 2-((4R,5R)-5-(2-chlorobenzyl)-2,2-diethyl-1,3-dioxolan-4-yl)ethyl sulfamate]
response vs control in vivo at 40 mg/kg (ip, 0.5 h, 0.5 h): 37.4%

CC1(C)O[C@H](c2ccccc2Cl)[C@@H](COS(N)(=O)=O)O1 [Example 1, ((4R,5R)-5-(2-chlorophenyl)-2,2-dimethyl-1,3-dioxolan-4-yl)methyl sulfamate]
response vs control in vivo at 60 mg/kg (ip, 0.5 h, 0.5 h): 21.1%

CC1(C)O[C@H](c2cnc(Cl)s2)[C@@H](COS(N)(=O)=O)O1 [Example 165, ((4R,5S)-5-(2-chlorothiazol-5-yl)-2,2-dimethyl-1,3-dioxolan-4-yl)methyl sulfamate]
ED50 (ip, von Frey, 0.5 h): > 60 mg/kg
CFA model: adverse observation (noted with ED50 >60 mg/kg): Seizure

CC1(C)OC(COS(N)(=O)=O)C(c2ccccc2Cl)O1 (mixture of isomers) [Example 4, (5-(2-chlorophenyl)-2,2-dimethyl-1,3-dioxolan-4-yl)methyl sulfamate(SR & RS mixture)]
CFA model: effect (%) at the concentration administered (0.5 h): ^#60 (49.9%, 0.5 h)
